Earlier results as cited in patent publication US9255156B2, “Immunogenic synthetic glycoconjugate for the immunotherapy of melanoma” (Azienda Ospedaliero-Universitaria Careggi, priority 2009, dated 2016).

stability under physiological conditions / hydrolytic stability: unstable under physiological conditions
Substance: GM3 lactone [GM3 lactone 2]
